Data: the NIST ThermoML archive (doi:10.1016/j.fluid.2008.04.022)
± gives the expanded uncertainty stated by the source.

Experiment: xn = mol fraction of the nth substance listed
Conditions: Fluid (supercritical or subcritical phases), isochoric method

## FC(C(F)(F)F)C(F)(F)F [1,1,1,2,3,3,3-heptafluoropropane] + CCF
318.18 K, 961.3 kPa, x2 = 0.8032
  mass density: 441.9 ± 2.2 kg/m3
323.18 K, 987.1 kPa, x2 = 0.8032
  mass density: 441.8 ± 2.2 kg/m3
323.19 K, 1112.7 kPa, x2 = 0.739
  mass density: 520.8 ± 2.4 kg/m3
328.18 K, 1011.6 kPa, x2 = 0.8032
  mass density: 441.8 ± 2.2 kg/m3
328.19 K, 1144.3 kPa, x2 = 0.739
  mass density: 520.7 ± 2.4 kg/m3
333.18 K, 1034.4 kPa, x2 = 0.8032
  mass density: 441.7 ± 2.2 kg/m3
333.18 K, 1439.9 kPa, x2 = 0.8036
  mass density: 671.6 ± 2.6 kg/m3
333.19 K, 1173.6 kPa, x2 = 0.739
  mass density: 520.7 ± 2.4 kg/m3
333.19 K, 1516.7 kPa, x2 = 0.811
  mass density: 717.6 ± 2.9 kg/m3
338.18 K, 1058.6 kPa, x2 = 0.8032
  mass density: 441.7 ± 2.1 kg/m3
338.18 K, 1369.5 kPa, x2 = 0.44
  mass density: 660.6 ± 3 kg/m3
338.18 K, 1481.2 kPa, x2 = 0.8036
  mass density: 671.6 ± 2.7 kg/m3
338.18 K, 1560.1 kPa, x2 = 0.811
  mass density: 717.5 ± 2.9 kg/m3
338.19 K, 1202.9 kPa, x2 = 0.739
  mass density: 520.7 ± 2.4 kg/m3
343.18 K, 1231.3 kPa, x2 = 0.739
  mass density: 520.6 ± 2.4 kg/m3
343.18 K, 1519.5 kPa, x2 = 0.8036
  mass density: 671.5 ± 2.6 kg/m3
343.18 K, 1601.7 kPa, x2 = 0.811
  mass density: 717.5 ± 2.8 kg/m3
343.19 K, 1081.5 kPa, x2 = 0.8032
  mass density: 441.7 ± 2.1 kg/m3
343.19 K, 1413.6 kPa, x2 = 0.44
  mass density: 660.5 ± 3 kg/m3
343.19 K, 1712.3 kPa, x2 = 0.627
  mass density: 835.4 ± 3.2 kg/m3
348.15 K, 2241.8 kPa, x2 = 0.8392
  mass density: 1112.1 ± 3.9 kg/m3
348.18 K, 1104.1 kPa, x2 = 0.8032
  mass density: 441.6 ± 2 kg/m3
348.18 K, 1260.2 kPa, x2 = 0.739
  mass density: 520.6 ± 2.4 kg/m3
348.18 K, 1453.8 kPa, x2 = 0.44
  mass density: 660.5 ± 3 kg/m3
348.18 K, 1557.8 kPa, x2 = 0.8036
  mass density: 671.4 ± 2.6 kg/m3
348.19 K, 1766.5 kPa, x2 = 0.627
  mass density: 835.3 ± 3.1 kg/m3
348.2 K, 1643.2 kPa, x2 = 0.811
  mass density: 717.4 ± 2.8 kg/m3
353.15 K, 2312 kPa, x2 = 0.8392
  mass density: 1112 ± 3.9 kg/m3
353.18 K, 1127 kPa, x2 = 0.8032
  mass density: 441.6 ± 2 kg/m3
353.18 K, 1287.6 kPa, x2 = 0.739
  mass density: 520.5 ± 2.3 kg/m3
353.19 K, 1493.5 kPa, x2 = 0.44
  mass density: 660.4 ± 3 kg/m3
353.19 K, 1594.5 kPa, x2 = 0.8036
  mass density: 671.4 ± 2.6 kg/m3
353.19 K, 1683.4 kPa, x2 = 0.811
  mass density: 717.3 ± 2.7 kg/m3
353.19 K, 1818 kPa, x2 = 0.627
  mass density: 835.2 ± 3.1 kg/m3
358.17 K, 1314.9 kPa, x2 = 0.739
  mass density: 520.5 ± 2.3 kg/m3
358.17 K, 1532 kPa, x2 = 0.44
  mass density: 660.3 ± 3 kg/m3
358.18 K, 1148.5 kPa, x2 = 0.8032
  mass density: 441.6 ± 2 kg/m3
358.18 K, 1631.3 kPa, x2 = 0.8036
  mass density: 671.3 ± 2.5 kg/m3
358.19 K, 1722.8 kPa, x2 = 0.811
  mass density: 717.3 ± 2.7 kg/m3
358.19 K, 1868.1 kPa, x2 = 0.627
  mass density: 835.2 ± 3 kg/m3
358.23 K, 2381.4 kPa, x2 = 0.8392
  mass density: 1111.9 ± 3.8 kg/m3
363.14 K, 2448.2 kPa, x2 = 0.8392
  mass density: 1111.8 ± 3.8 kg/m3
363.19 K, 1171.1 kPa, x2 = 0.8032
  mass density: 441.5 ± 1.9 kg/m3
363.19 K, 1569.8 kPa, x2 = 0.44
  mass density: 660.3 ± 3 kg/m3
363.19 K, 1761.7 kPa, x2 = 0.811
  mass density: 717.2 ± 2.7 kg/m3
363.19 K, 1917 kPa, x2 = 0.627
  mass density: 835.1 ± 3 kg/m3
363.2 K, 2459.6 kPa, x2 = 0.4954
  mass density: 1290.6 ± 4.5 kg/m3
363.21 K, 1667 kPa, x2 = 0.8036
  mass density: 671.3 ± 2.5 kg/m3
363.31 K, 1342.8 kPa, x2 = 0.739
  mass density: 520.4 ± 2.2 kg/m3
368.14 K, 1369.4 kPa, x2 = 0.739
  mass density: 520.4 ± 2.2 kg/m3
368.14 K, 1800.8 kPa, x2 = 0.811
  mass density: 717.2 ± 2.6 kg/m3
368.16 K, 1608 kPa, x2 = 0.44
  mass density: 660.2 ± 2.9 kg/m3
368.16 K, 1966 kPa, x2 = 0.627
  mass density: 835 ± 3 kg/m3
368.17 K, 1703 kPa, x2 = 0.8036
  mass density: 671.2 ± 2.5 kg/m3
368.18 K, 2515 kPa, x2 = 0.8392
  mass density: 1111.7 ± 3.8 kg/m3
368.18 K, 2548.7 kPa, x2 = 0.4954
  mass density: 1290.5 ± 4.4 kg/m3
368.29 K, 1193.9 kPa, x2 = 0.8032
  mass density: 441.5 ± 1.9 kg/m3
373.04 K, 1215 kPa, x2 = 0.8032
  mass density: 441.5 ± 1.9 kg/m3
373.15 K, 1644.9 kPa, x2 = 0.44
  mass density: 660.2 ± 2.8 kg/m3
373.16 K, 1839.4 kPa, x2 = 0.811
  mass density: 717.1 ± 2.6 kg/m3
373.18 K, 1396.2 kPa, x2 = 0.739
  mass density: 520.4 ± 2.2 kg/m3
373.18 K, 1738.7 kPa, x2 = 0.8036
  mass density: 671.2 ± 2.5 kg/m3
373.18 K, 2580 kPa, x2 = 0.8392
  mass density: 1111.6 ± 3.8 kg/m3
373.18 K, 2636.7 kPa, x2 = 0.4954
  mass density: 1290.4 ± 4.4 kg/m3
373.19 K, 2014.5 kPa, x2 = 0.627
  mass density: 835 ± 2.9 kg/m3
376.18 K, 2687.7 kPa, x2 = 0.4954
  mass density: 1290.3 ± 4.3 kg/m3
378.17 K, 2644.8 kPa, x2 = 0.8392
  mass density: 1111.5 ± 3.8 kg/m3
378.23 K, 1774.6 kPa, x2 = 0.8036
  mass density: 671.1 ± 2.4 kg/m3
378.23 K, 2063.3 kPa, x2 = 0.627
  mass density: 834.9 ± 2.9 kg/m3
378.25 K, 1422.5 kPa, x2 = 0.739
  mass density: 520.3 ± 2.1 kg/m3
378.25 K, 1681.3 kPa, x2 = 0.44
  mass density: 660.1 ± 2.8 kg/m3
378.25 K, 1876.9 kPa, x2 = 0.811
  mass density: 717 ± 2.6 kg/m3
378.29 K, 1236.9 kPa, x2 = 0.8032
  mass density: 441.4 ± 1.8 kg/m3
379.23 K, 2739.1 kPa, x2 = 0.4954
  mass density: 1290.3 ± 4.3 kg/m3
382.19 K, 2788.4 kPa, x2 = 0.4954
  mass density: 1290.2 ± 4.3 kg/m3
383.08 K, 1448.6 kPa, x2 = 0.739
  mass density: 520.3 ± 2.1 kg/m3
383.17 K, 2708.3 kPa, x2 = 0.8392
  mass density: 1111.4 ± 3.7 kg/m3
383.2 K, 2110.6 kPa, x2 = 0.627
  mass density: 834.8 ± 2.9 kg/m3
383.21 K, 1718.2 kPa, x2 = 0.44
  mass density: 660.1 ± 2.7 kg/m3
383.21 K, 1809.6 kPa, x2 = 0.8036
  mass density: 671.1 ± 2.4 kg/m3
383.21 K, 1915.8 kPa, x2 = 0.811
  mass density: 717 ± 2.6 kg/m3
383.22 K, 1259.2 kPa, x2 = 0.8032
  mass density: 441.4 ± 1.8 kg/m3
385.22 K, 2838.9 kPa, x2 = 0.4954
  mass density: 1290.1 ± 4.3 kg/m3
388.17 K, 2771 kPa, x2 = 0.8392
  mass density: 1111.3 ± 3.7 kg/m3
388.18 K, 1279.7 kPa, x2 = 0.8032
  mass density: 441.3 ± 1.8 kg/m3
388.18 K, 2156.7 kPa, x2 = 0.627
  mass density: 834.8 ± 2.9 kg/m3
388.19 K, 1754.7 kPa, x2 = 0.44
  mass density: 660 ± 2.7 kg/m3
388.19 K, 1844.5 kPa, x2 = 0.8036
  mass density: 671 ± 2.4 kg/m3
388.19 K, 1953.2 kPa, x2 = 0.811
  mass density: 716.9 ± 2.5 kg/m3
388.19 K, 2887.9 kPa, x2 = 0.4954
  mass density: 1290.1 ± 4.3 kg/m3
388.32 K, 1475.8 kPa, x2 = 0.739
  mass density: 520.2 ± 2.1 kg/m3
391.22 K, 2937.4 kPa, x2 = 0.4954
  mass density: 1290 ± 4.2 kg/m3
393.18 K, 1501.3 kPa, x2 = 0.739
  mass density: 520.2 ± 2 kg/m3
393.18 K, 1790.2 kPa, x2 = 0.44
  mass density: 660 ± 2.6 kg/m3
393.18 K, 1879 kPa, x2 = 0.8036
  mass density: 670.9 ± 2.4 kg/m3
393.18 K, 1990.4 kPa, x2 = 0.811
  mass density: 716.9 ± 2.5 kg/m3
393.18 K, 2203.2 kPa, x2 = 0.627
  mass density: 834.7 ± 2.8 kg/m3
393.21 K, 1301.7 kPa, x2 = 0.8032
  mass density: 441.3 ± 1.8 kg/m3
393.22 K, 2834 kPa, x2 = 0.8392
  mass density: 1111.2 ± 3.7 kg/m3
394.18 K, 2985.9 kPa, x2 = 0.4954
  mass density: 1289.9 ± 4.2 kg/m3
397.15 K, 3033.4 kPa, x2 = 0.4954
  mass density: 1289.9 ± 4.2 kg/m3
398.16 K, 1322.9 kPa, x2 = 0.8032
  mass density: 441.3 ± 1.8 kg/m3
398.16 K, 1912.8 kPa, x2 = 0.8036
  mass density: 670.9 ± 2.4 kg/m3
398.16 K, 2248.3 kPa, x2 = 0.627
  mass density: 834.6 ± 2.8 kg/m3
398.17 K, 1527.2 kPa, x2 = 0.739
  mass density: 520.1 ± 2 kg/m3
398.17 K, 1825.4 kPa, x2 = 0.44
  mass density: 659.9 ± 2.6 kg/m3
398.17 K, 2027.2 kPa, x2 = 0.811
  mass density: 716.8 ± 2.5 kg/m3
398.21 K, 2896 kPa, x2 = 0.8392
  mass density: 1111.2 ± 3.7 kg/m3
400.15 K, 3082 kPa, x2 = 0.4954
  mass density: 1289.8 ± 4.2 kg/m3
403.14 K, 1344.2 kPa, x2 = 0.8032
  mass density: 441.2 ± 1.8 kg/m3
403.15 K, 1946.2 kPa, x2 = 0.8036
  mass density: 670.8 ± 2.3 kg/m3
403.16 K, 1553.2 kPa, x2 = 0.739
  mass density: 520.1 ± 1.9 kg/m3
403.16 K, 1860.1 kPa, x2 = 0.44
  mass density: 659.8 ± 2.5 kg/m3
403.17 K, 2293.4 kPa, x2 = 0.627
  mass density: 834.5 ± 2.8 kg/m3
403.19 K, 2956.6 kPa, x2 = 0.8392
  mass density: 1111.1 ± 3.6 kg/m3
403.19 K, 3129.8 kPa, x2 = 0.4954
  mass density: 1289.8 ± 4.2 kg/m3
403.2 K, 2063.9 kPa, x2 = 0.811
  mass density: 716.8 ± 2.5 kg/m3
